From US11795180B2, “Formulation of a pan-JAK inhibitor” (THERAVANCE BIOPHARMA R&D IP, LLC, priority 2020, dated 2023)

Experiments:
[1] = Drug concentration in stool samples of healthy human subjects; type: in vivo
Source text: As described previously in U.S. Pat. No. 9,725,470, the absorption and distribution of Compound I has been extensively profiled in preclinical assays. […] In addition, Compound I is designed to have its effect at the site of action in the gastrointestinal tract.

[2] = Dissolution profiles of tablets with 3% magnesium stearate (blending process, particle size); type: physicochemical; conditions: tablet with 3% magnesium stearate, Compound I particles blended with a filler, no pre-blending with hydrophobic colloidal silicon dioxide
Description: […] The particle size of Compound I was determined by static image analysis.
During manufacturing of certain tablets comprising 0.5-1% magnesium stearate, film formation on tablet punches was observed. The film formed after compression of a few tablets. After extensive investigation, the problem was resolved by increasing the magnesium stearate content in the composition up to 3%. […]
Using this manufacturing procedure, consistently fast dissolution profiles were obtained for different particle sizes of Compound I without leading to the unwanted film formation on tablet punches. Dissolution profiles of tablets manufactured according to this procedure and containing various particle sizes of Compound I are depicted in FIG. 9.

[3] = rat; cited from earlier work
JAK3 = biological target: T1, JAK3 (Homo sapiens, UniProt P52333); conditions: cited from earlier work
T1 sequence (P52333 1-1124): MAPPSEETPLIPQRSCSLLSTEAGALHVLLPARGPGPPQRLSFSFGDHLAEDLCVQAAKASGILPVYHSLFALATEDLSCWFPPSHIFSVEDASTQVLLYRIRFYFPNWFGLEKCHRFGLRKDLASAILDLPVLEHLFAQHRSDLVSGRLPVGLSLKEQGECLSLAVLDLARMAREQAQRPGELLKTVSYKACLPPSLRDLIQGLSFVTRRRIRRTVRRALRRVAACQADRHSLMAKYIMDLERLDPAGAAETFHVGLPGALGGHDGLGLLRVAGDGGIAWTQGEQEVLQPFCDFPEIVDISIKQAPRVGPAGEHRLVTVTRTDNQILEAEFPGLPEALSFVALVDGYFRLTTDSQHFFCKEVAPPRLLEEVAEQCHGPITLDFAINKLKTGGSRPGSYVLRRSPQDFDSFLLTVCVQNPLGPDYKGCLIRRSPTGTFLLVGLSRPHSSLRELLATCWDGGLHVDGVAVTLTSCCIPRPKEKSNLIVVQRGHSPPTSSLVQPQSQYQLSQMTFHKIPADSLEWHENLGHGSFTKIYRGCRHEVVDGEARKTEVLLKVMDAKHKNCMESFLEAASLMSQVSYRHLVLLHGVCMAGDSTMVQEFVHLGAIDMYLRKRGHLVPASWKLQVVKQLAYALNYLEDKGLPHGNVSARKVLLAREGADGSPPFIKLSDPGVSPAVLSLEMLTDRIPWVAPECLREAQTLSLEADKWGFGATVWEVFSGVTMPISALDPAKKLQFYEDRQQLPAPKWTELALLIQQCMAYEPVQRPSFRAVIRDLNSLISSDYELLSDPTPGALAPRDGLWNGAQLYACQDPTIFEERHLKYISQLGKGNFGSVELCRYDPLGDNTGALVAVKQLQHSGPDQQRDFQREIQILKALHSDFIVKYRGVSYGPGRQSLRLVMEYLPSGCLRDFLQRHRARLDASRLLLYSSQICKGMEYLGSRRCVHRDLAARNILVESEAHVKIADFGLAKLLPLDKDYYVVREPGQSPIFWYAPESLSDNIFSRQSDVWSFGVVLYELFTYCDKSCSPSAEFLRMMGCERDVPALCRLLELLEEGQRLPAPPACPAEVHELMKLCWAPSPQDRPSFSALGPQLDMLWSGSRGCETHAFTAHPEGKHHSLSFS

TYK2 = TYK2 (Homo sapiens, UniProt P29597); conditions: cited from earlier work
JAK2 = JAK2 (Homo sapiens, UniProt O60674); conditions: cited from earlier work
[4] = test system: oxazolone-induced colitis; test: Oxazolone-induced colitis model; type: in vivo; conditions: mice
Source text: (§1) Oxazolone-induced colitis is an experimental model that has a histological resemblance to human ulcerative colitis.

[5] = cannulated rats; cited from earlier work
[6] = oral dosing, preclinical species; cited from earlier work
immunosuppression = test: Immunosuppression model (systemic functional activity); type: in vivo; conditions: mice, same dose required to demonstrate efficacy in the oxazolone model
Source text: as §1

JAK1 = JAK1 (Homo sapiens, UniProt P23458); conditions: cited from earlier work
Sequence of JAK1 (P23458 whole entry): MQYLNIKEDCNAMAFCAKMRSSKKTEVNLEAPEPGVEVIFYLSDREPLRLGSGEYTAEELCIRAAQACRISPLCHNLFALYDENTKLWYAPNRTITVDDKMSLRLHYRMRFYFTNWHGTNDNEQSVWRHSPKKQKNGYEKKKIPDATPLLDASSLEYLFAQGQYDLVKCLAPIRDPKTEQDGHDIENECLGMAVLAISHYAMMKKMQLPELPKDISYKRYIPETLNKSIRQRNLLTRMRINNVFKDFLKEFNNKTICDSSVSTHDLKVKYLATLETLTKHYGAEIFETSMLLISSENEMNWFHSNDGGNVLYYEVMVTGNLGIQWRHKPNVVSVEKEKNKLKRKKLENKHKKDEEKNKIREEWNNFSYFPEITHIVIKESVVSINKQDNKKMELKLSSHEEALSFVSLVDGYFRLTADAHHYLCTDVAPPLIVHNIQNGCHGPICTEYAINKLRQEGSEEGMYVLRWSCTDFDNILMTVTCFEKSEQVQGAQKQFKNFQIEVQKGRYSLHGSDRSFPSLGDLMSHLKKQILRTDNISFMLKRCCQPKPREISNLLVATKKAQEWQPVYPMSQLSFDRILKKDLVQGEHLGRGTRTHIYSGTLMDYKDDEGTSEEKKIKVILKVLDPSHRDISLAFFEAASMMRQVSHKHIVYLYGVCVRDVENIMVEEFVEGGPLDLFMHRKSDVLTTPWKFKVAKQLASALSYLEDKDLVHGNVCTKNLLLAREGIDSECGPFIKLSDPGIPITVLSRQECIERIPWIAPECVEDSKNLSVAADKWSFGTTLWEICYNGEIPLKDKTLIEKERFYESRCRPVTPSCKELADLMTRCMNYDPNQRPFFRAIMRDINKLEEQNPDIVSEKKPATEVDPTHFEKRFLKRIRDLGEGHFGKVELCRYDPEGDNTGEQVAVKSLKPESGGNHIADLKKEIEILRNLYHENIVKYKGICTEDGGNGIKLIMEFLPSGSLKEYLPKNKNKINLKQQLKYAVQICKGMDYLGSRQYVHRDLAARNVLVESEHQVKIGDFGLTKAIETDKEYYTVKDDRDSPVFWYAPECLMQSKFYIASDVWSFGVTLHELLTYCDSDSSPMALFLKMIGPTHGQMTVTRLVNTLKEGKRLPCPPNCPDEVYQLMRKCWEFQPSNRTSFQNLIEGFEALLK

Sequence of TYK2 (P29597 whole entry): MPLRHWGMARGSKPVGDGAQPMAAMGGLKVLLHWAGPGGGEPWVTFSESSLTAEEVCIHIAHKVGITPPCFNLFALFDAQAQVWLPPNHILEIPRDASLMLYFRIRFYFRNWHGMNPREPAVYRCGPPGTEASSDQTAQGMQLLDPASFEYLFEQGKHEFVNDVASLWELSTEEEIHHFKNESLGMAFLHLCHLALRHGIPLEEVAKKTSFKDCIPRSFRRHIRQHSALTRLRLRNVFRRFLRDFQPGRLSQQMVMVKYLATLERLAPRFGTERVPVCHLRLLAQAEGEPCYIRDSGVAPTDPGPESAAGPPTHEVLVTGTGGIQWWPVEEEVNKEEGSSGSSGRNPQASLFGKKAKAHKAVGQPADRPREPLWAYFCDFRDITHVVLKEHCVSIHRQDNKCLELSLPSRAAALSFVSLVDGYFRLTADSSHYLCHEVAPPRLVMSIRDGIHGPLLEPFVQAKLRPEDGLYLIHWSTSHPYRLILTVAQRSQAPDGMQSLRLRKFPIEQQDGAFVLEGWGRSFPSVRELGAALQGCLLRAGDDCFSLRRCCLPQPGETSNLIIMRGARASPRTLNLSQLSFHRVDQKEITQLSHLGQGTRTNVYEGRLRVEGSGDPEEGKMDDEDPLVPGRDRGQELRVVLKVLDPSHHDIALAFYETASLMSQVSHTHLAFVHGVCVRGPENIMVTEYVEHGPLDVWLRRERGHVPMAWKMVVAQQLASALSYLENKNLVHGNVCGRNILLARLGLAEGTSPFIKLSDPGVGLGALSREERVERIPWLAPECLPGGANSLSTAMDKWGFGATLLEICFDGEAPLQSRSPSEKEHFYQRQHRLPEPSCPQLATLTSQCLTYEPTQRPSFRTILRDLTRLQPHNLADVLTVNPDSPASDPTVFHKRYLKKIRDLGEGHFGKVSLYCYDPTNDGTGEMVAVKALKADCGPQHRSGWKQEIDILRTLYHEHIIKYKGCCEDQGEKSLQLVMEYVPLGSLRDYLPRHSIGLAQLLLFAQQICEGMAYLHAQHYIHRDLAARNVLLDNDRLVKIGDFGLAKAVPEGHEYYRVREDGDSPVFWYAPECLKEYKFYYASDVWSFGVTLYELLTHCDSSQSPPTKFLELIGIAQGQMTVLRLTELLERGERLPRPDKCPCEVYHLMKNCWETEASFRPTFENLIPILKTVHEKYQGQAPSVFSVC
Sequence of JAK2 (O60674 whole entry): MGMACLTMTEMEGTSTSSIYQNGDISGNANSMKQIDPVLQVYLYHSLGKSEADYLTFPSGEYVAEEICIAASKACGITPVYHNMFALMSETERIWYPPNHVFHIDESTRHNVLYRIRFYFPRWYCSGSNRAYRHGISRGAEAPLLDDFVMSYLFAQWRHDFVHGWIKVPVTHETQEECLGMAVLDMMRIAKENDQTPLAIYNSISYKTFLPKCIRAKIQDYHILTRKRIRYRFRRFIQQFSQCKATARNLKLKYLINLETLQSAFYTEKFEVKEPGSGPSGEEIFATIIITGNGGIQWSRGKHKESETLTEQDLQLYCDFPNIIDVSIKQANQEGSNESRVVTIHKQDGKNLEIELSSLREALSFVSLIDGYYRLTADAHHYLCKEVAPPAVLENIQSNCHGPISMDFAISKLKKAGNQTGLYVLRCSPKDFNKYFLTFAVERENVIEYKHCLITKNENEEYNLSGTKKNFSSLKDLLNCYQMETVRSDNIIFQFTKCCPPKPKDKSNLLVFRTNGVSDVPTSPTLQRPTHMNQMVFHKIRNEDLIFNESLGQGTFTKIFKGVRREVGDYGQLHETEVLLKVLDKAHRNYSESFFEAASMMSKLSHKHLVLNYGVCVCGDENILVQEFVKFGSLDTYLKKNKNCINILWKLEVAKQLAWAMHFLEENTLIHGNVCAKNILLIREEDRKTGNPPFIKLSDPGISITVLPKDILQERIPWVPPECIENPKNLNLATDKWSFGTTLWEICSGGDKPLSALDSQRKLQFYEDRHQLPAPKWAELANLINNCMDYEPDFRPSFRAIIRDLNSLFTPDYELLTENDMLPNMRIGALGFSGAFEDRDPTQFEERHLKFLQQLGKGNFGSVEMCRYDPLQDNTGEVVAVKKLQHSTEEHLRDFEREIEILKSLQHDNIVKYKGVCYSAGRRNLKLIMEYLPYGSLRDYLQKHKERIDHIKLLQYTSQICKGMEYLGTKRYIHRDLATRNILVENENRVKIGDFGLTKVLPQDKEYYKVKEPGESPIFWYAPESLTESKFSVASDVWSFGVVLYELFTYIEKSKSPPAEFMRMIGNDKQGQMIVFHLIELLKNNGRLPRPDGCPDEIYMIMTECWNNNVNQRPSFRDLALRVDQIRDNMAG

**Q.** What does the source list for Cc1cc(Nc2cc3ncccc3c(N[C@@H]3C[C@H]4CC[C@@H](C3)N4CCC#N)n2)n[nH]1 [Compound I, 3-((1R,3s,5S)-3-((7-((5-methyl-1H-pyrazol-3-yl)amino)-1,6-naphthyridin-5-yl)amino)-8-azabicyclo[3.2.1]octan-8-yl)propanenitrile]?
**A.** Drug concentration in stool samples [1]: high drug concentration; Dissolution rate (FIG. 8) [2]: reduced dissolution rate; Ratio of exposure in the colon to exposure in plasma [3]: greater than 450; Inhibition of JAK3 (JAK3): potent inhibitor; Inhibition of TYK2 (TYK2): potent inhibitor; Inhibition of JAK2 (JAK2): potent inhibitor; Activity in the oxazolone-induced colitis model [4]: demonstrated activity; Absorption into plasma at the portal vein [5]: low absorption; Exposure throughout the gastrointestinal tract compared with exposure in plasma [6]: significantly higher exposure; Effect of immunosuppression (immunosuppression): minimal effect of immunosuppression; Inhibition of JAK1 (JAK1): potent inhibitor
